Experimental data as given in patent US8410046B2, “Antibiotic peptide derived from ribosomal protein L1 of Helicobacter pylori and use thereof” (Industry-Academic Cooperation Foundation, Chosun University, priority 2008, dated 2013).
“Also recorded” adds a separate entry of the source. Where two headings read alike, the source gives them in different places. Where no end group is shown, it is not given here.

Experiments:
Type in all cases: cell-based
human erythrocyte = test: Erythrocyte hemolytic activity; settings: for hemolytic activity (result in words): human erythrocyte, by the concentration of 200 μM; for % Hemolysis: 8% human erythrocyte in PBS pH 7.0, 1 hour, 1% triton X-100 = 100%
Procedure: Firstly, the present inventors diluted human erythrocyte with phosphate buffer (PBS, pH 7.0) to be a 8% concentration and then, they diluted each described peptide comprising the amino acid sequence of SEQ. ID. NO: 1 to 3 in the Table 1 continually at the 1/2 concentration starting from 200 μM and make them reacted for 1 hour at 37. After then, the present inventors measured the amount of hemoglobin included in the supernatant obtained by centrifugating it with 1,000 g and the absorbance under the 414 nm of wavelength of the supernatant. In order to investigate relative level a comparative study of cytotoxicity, they measured the absorbance of supernatant with adding 1% triton X-100 (sigma, USA) to the human erythrocyte cell. Making the cytotoxicity of 1% triton X-100 to become a 100%, the present inventors calculated hemolysis of the peptides (experimental group 1 and 2) and maternal peptides (control group) of the present invention according to the following mathematical formula.
In the mathematical formula, absorbance A means the absorbance of the peptide solution under the 414 nm of wavelength, absorbance B means the absorbance of PBS under the 414 nm of wavelength and absorbance C means the absorbance of 1% triton X-100 under the 414 nm of wavelength.

[1] = test system: Pseudomonas aeruginosa (KCTC 1637); test: MIC, antimicrobial activity (microtitrate plate, absorbance 620 nm); settings: Gram negative bacterium; 6 hours at 37° C.
Text: (§1) The present inventors measured MIC, which is the minimum concentration of not divided bacterial cell, in order to compare the antimicrobial activity of the peptide prepared by the method of <experimental example 1>.
(§2) More specifically, the present inventors used Escherichia coli, Pseudomonas aeruginosa, Proteus vulgaris, Salmonella typhimurium as a Gram negative bacterium and used Staphylococcus aureus, Listeria monocytogenes, Staphylococcus epidermidis, Bacillus subtilis as a Gram positive bacterium. In addition, Escherichia coli (ATCC 25922), Listeria monocytogenes (ATCC 19115), and Staphylococcus aureus (ATCC 25923) were provided by “American Type Culture Collection” and Bacillus subtilis (KCTC 1918), […] (KCTC 3096), Pseudomonas aeruginosa (KCTC 1637) and Proteus vulgaris (KCTC 2433) were provided by “Korean Collection for Type Cultures”. After culturing each strain by up to mid-log phase in LB medium (1% Bacto tryptone, 0.5% extraction of Bacto yeast, 1% sodium chloride; Sigma, USA) and diluting it by the bacterial cell concentration of 1×10^4 cell/100 μl with 1% Bacto pepton medium (Difco, USA), they inoculated the strain to Microtitrate Plate (Nunc, USA). The present inventors added both the peptide of the present invention (experimental group 1 and 2) synthesized in the <experimental example 1> and maternal peptide(control group) into the plate after diluting separately by 1/2 times from 25 μM/well, and cultured them for 6 hours at 37° C. In addition, they measured absorbance under 620 nm of wavelength using Microtitrate Plate reader (Merck Elisa reader, Germany) and determined the MIC value of each strain, after then they described the final result in the following Table 2.

[2] = test system: Listeria monocytogenes (ATCC 19115); test: as above; settings: Gram positive bacterium; 6 hours at 37° C.
Text: as §1, §2

Salmonella typhimurium = test: as above; settings: Gram negative bacterium; 6 hours at 37° C.
Text: as §1, §2

[3] = test system: Escherichia coli (ATCC 25922); test: as above; settings: Gram negative bacterium; 6 hours at 37° C.
Text: as §1, §2

[4] = test system: Staphylococcus aureus (ATCC 25923); test: as above; settings: Gram positive bacterium; 6 hours at 37° C.
Text: as §1, §2

[5] = test system: Proteus vulgaris (KCTC 2433); test: as above; settings: Gram negative bacterium; 6 hours at 37° C.
Text: as §1, §2

[6] = test system: Staphylococcus epidermidis; test: as above; settings: Gram positive bacterium; 6 hours at 37° C.
Text: as §1, §2

[7] = test system: Bacillus subtilis (KCTC 1918); settings: Gram positive bacterium; 6 hours at 37° C.
Text: as §1, §2

NIH3T3 cell line = test: Cytotoxicity in the normal cell line (MTT)
Procedure: (§3) In order to confirm the cytotoxicity in the normal cell line, which was prepared by the <experimental example 1>, the present inventors measured the cytotoxicity using HaCaT cell line (Dr. N E. Fusenig, Heidelberg, Germany) and NIH3T3 cell line (ATCC(CRL-1658™)).
(§4) Specifically, they inject HaCaT cell line and NIH3T3 cell line, which were cultured in DMEM badge including 10% FBS (Fetal Bovine Serum), into 96-well plate with 3×10^3 each and cultured them for 24 hours, after then, they treated the peptides prepared by the <experimental example> to the HaCaT cell line and NIH3T3 cell line according to the concentration respectively and reacted them in the 5% CO2 incubator for 24 hours. After culturing, they put 20 ul of MTT (Thiazolyl Blue Tetrazolium Bromide) solution (5 mg/ml in PBS), into each well and reacted them four hours. And they removed supernatant and melted MTT crystal prepared by adding 200 ul of DMSO, and then they studied the result at 560 nm.

HaCaT cell line = test: Cytotoxicity in the normal cell line (MTT)
Procedure: as §3, §4

[8] = NIH3T3 cell line, 24 hours, MTT

AKRLKKLAKKIWKWK-NH2 [NT3-F1AF8A-A2, AKRLKKLAKKIWKWK-NH2]
hemolytic activity (result in words) (human erythrocyte): no hemolytic activity
% Hemolysis (human erythrocyte; peptide 3.13 μM): 0%
% Hemolysis (human erythrocyte; peptide 6.25 μM): 0%
% Hemolysis (human erythrocyte; peptide 12.5 μM): 0%
% Hemolysis (human erythrocyte; peptide 25 μM): 0%
% Hemolysis (human erythrocyte; peptide 50 μM): 0%
% Hemolysis (human erythrocyte; peptide 100 μM): 0%
% Hemolysis (human erythrocyte; peptide 200 μM): 0%
MIC Pseudomonas aeruginosa [1]: 2 µM
MIC Listeria monocytogenes [2]: 2 µM
MIC Salmonella typhimurium (Salmonella typhimurium): 1 to 2 µM
MIC Escherichia coli [3]: 4 µM
MIC Staphylococcus aureus [4]: 4 µM
MIC Proteus vulgaris [5]: 2 to 4 µM
MIC Staphylococcus epidermidis [6]: 2 to 4 µM
MIC Bacillus subtilis [7]: 2 µM
cytotoxicity (result in words, FIG. 2) (NIH3T3 cell line): little cytotoxicity
cytotoxicity (result in words, FIG. 1) (HaCaT cell line): little cytotoxicity

AKRLKKLAKKIWNWK-NH2 [NT3-F1AF8A, AKRLKKLAKKIWNWK-NH2]
hemolytic activity (result in words) (human erythrocyte): no hemolytic activity; also recorded: did not generate hemolytic phenomenon
% Hemolysis (human erythrocyte; peptide 3.13 μM): 0%
% Hemolysis (human erythrocyte; peptide 6.25 μM): 0%
% Hemolysis (human erythrocyte; peptide 12.5 μM): 0%
% Hemolysis (human erythrocyte; peptide 25 μM): 0%
% Hemolysis (human erythrocyte; peptide 50 μM): 0%
% Hemolysis (human erythrocyte; peptide 100 μM): 0%
% Hemolysis (human erythrocyte; peptide 200 μM): 0%
MIC Pseudomonas aeruginosa [1]: 2 µM
MIC Listeria monocytogenes [2]: 2 µM
MIC Salmonella typhimurium (Salmonella typhimurium): 2 µM
MIC Escherichia coli [3]: 16 to 32 µM
MIC Staphylococcus aureus [4]: 4 to 8 µM
MIC Proteus vulgaris [5]: 4 µM
MIC Staphylococcus epidermidis [6]: 16 µM
MIC Bacillus subtilis [7]: 4 µM
cytotoxicity (result in words, FIG. 2) (NIH3T3 cell line; [8]): little cytotoxicity
cytotoxicity (result in words, FIG. 1) (HaCaT cell line; HaCaT cell line, 24 hours, MTT): little cytotoxicity

FKRLKKLFKKIWNWK-NH2 [HPA3NT3, FKRLKKLFKKIWNWK-NH2, reference compound]
% Hemolysis (human erythrocyte; peptide 3.13 μM): 0%
% Hemolysis (human erythrocyte; peptide 6.25 μM): 0%
% Hemolysis (human erythrocyte; peptide 12.5 μM): 0%
% Hemolysis (human erythrocyte; peptide 25 μM): 0%
% Hemolysis (human erythrocyte; peptide 50 μM): 7.12%
% Hemolysis (human erythrocyte; peptide 100 μM): 11.35%
% Hemolysis (human erythrocyte; peptide 200 μM): 37.23%
MIC Pseudomonas aeruginosa [1]: 2 µM
MIC Listeria monocytogenes [2]: 2 µM
MIC Salmonella typhimurium (Salmonella typhimurium): 2 µM
MIC Escherichia coli [3]: 4 µM
MIC Staphylococcus aureus [4]: 2 µM
MIC Proteus vulgaris [5]: 8 µM
MIC Staphylococcus epidermidis [6]: 2 to 4 µM
MIC Bacillus subtilis [7]: 2 µM
cytotoxicity (result in words, FIG. 2) (NIH3T3 cell line; [8]): high cytotoxicity
cytotoxicity (result in words, FIG. 1) (HaCaT cell line; HaCaT cell line, 24 hours, MTT): high cytotoxicity
